The source of these data is US7470706B2, “Cycloalkyl-substituted 7-amino-4-quinolone-3-carboxylic acid derivatives, process for their preparation and their use as medicaments” (Sanofi-Aventis Deutschland GmbH, priority 2004, dated 2008).

The target in this assay is T1, human glycogen phosphorylase a (Homo sapiens, UniProt P06737).
T1 sequence (P06737 1-847): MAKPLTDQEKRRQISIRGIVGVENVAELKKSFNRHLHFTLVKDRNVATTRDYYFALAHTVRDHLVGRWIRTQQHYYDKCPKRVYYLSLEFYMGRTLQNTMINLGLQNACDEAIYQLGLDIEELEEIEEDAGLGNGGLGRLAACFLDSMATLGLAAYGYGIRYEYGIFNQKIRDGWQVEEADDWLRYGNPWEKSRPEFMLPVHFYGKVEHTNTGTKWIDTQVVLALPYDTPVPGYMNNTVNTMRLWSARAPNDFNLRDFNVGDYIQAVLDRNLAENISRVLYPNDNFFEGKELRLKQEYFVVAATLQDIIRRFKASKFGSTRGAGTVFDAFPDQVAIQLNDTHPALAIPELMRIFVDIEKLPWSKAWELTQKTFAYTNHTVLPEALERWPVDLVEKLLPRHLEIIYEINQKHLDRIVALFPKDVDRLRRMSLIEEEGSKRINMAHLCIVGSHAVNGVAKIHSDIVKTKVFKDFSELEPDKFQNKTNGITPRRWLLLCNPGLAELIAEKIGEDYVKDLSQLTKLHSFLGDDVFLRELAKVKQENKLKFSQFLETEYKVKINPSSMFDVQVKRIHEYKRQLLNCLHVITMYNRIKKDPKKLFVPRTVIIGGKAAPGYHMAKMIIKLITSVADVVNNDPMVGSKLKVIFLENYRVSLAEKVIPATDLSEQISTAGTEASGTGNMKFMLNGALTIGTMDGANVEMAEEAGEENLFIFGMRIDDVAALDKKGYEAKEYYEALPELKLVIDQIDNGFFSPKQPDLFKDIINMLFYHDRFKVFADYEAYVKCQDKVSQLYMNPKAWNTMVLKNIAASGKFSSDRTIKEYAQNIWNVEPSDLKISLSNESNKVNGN
Put plainly: Glycogen phosphorylase a activity assay. The assay is classed as biochemical. As to conditions: 10 μM test substance; reverse direction (glycogen synthesis from glucose 1-phosphate), inorganic phosphate liberation. As for the experimental part: Glycogen Phosphorylase a Activity Assay
The effect of compounds on the activity of the active form of glycogen phosphorylase (GPa) was measured in the reverse direction by following the synthesis of glycogen from glucose 1-phosphate by determining the liberation of inorganic phosphate. All the reactions were carried out as duplicate determinations in microtiter plates with 96 wells (Half Area Plates, Costar No 3696), measuring the change in absorption owing to the formation of the reaction product at the wavelength specified hereinafter in a Multiskan Ascent Elisa Reader (Lab Systems, Finland).
In order to measure the GPa enzymic activity in the reverse direction, the general method of Engers et al. (Engers H D, Shechosky S, Madsen N B, Can J Biochem 1970 July; 48(7):746-754) was used to measure the conversion of glucose 1-phosphate into glycogen and inorganic phosphate, with the following modifications: human glycogen phosphorylase a (for example with 0.76 mg of protein/ml (Aventis Pharma Deutschland GmbH), dissolved in buffer solution E (25 mM β-glycerophosphate, pH 7.0, 1 mM EDTA and 1 mM dithiothreitol) was diluted with buffer T (50 mM Hepes, pH 7.0, 100 mM KCl, 2.5 mM EDTA, 2.5 mM MgCl2.6H2O) and addition of 5 mg/ml glycogen to a concentration of 10 μg of protein/ml. […] After incubation at 45° C. for 60 minutes, the absorption at 820 nm was measured. […]

By inhibition is commonly meant how much of the control response was suppressed. Turning to `C#CC1(Nc2cc3c(=O)c(C(=O)O)cn(CC)c3nc2C)CCCCC1` [Example 3, 1-Ethyl-6-(1-ethynylcyclohexylamino)-7-methyl-4-oxo-1,4-dihydro[1,8]naphthyridine-3-carboxylic acid], the inhibition at 10 µM stood at 35%.

Consider `C#CC1(Nc2cc3c(=O)c(C(=O)OCC)cn(CC)c3nc2C)CCCCC1` [Example 2], for which the inhibition at 10 µM worked out at 42%.
